Article PMC12649353, “Bioavailability of Thymol Incorporated into Gastro-Resistant Self-Emulsifying Pellets in Rabbits” (Animals : an Open Access Journal from MDPI, 2025)
Values joined by “and” are separate entries in the source; they are usually repeats but may differ in a detail not shown here. Equal values may be shown once. Read-outs that look alike come from different tables or passages of the source.

Tests used:
[1] = Growth performance of broiler rabbits fed thymol pellets; type: in vivo; settings: for live weight / average weight gain per rabbit / conversion ratio: EG
Procedure: The experiment lasted 28 days.
Body weight (BW) and feed intake (FI) were recorded individually once a week. The average daily FI, average daily weight gain (WG) and feed conversion ratio (FCR) were calculated at the end of the period (at 56 d of age and 63 d of age).

[2] = set-up: method as in earlier work; settings: weak acid; cited from earlier work
[3] = Thymol in plasma, tissues, large intestinal content and faeces (SPME GC/MS)
Procedure: A total of 48 rabbits of both sexes (an equal male-to-female ratio per treatment) at five weeks of age were randomly divided into two dietary treatment groups (24 rabbits in each); a control group (CG) fed a standard diet to which enteric pellets without thymol were added and an experimental group (EG) fed a standard diet into which enteric pellets with thymol (250 mg/kg) were incorporated. Plasma and tissue samples from the control group were used as blank samples to construct calibration curves. The rabbits of meat line M91, maternal albinotic line (cross breed New Zealand White, Bouscat rabbit, Argente Champagnet rabbit) and paternal acromalictic line (crossbreed Nitra’s rabbit, Californian rabbit, Big light silver) were used in this experiment. The animals were fed ad libitum and had free access to drinking water. All the experimental wire-net cages (61 cm × 34 cm × 33 cm) were kept in rooms with automatic temperature and humidity control through a digital thermograph (22 ± 4 °C, 70 ± 5%). A lighting regimen of 16 h light and 8 h dark was applied throughout the experiment. The experiment lasted 28 days. The EG rabbits received feed with thymol pellets for 21 days (56 d of age) and for the next 7 days (63 d of age) received pellets without thymol incorporated into feed.
To determine the thymol content in plasma, blood (1.5 mL) from nine rabbits was collected from the marginal ear vein (vena auricularis) into heparinised Eppendorf tubes, and plasma was obtained after centrifugation at 1180× g for 15 min. The gastrointestinal tract was removed from the body cavity and was divided into the small intestine (duodenum and jejunum), caecum and colon (n = 9). Caecum and colon contents were removed, and the small intestinal lumen was gently washed with a 0.9% NaCl solution. The obtained samples of duodenal wall (DW), jejunal wall (JW) and gut content together with plasma, liver, kidney, muscle (longissimus thoracis et lumborum, LTL) and spleen tissue, fat, and faeces were immediately frozen in liquid nitrogen and stored at −70 °C until analysed. All samples were collected on both experimental days (56 or 63 d of age).
Thymol was determined using solid-phase microextraction (SPME) coupled with gas chromatography/mass spectrometry (GC/MS). The analytical system comprised an Agilent 7890A gas chromatograph (Agilent Technologies, Wilmington, DE, USA) interfaced with an Agilent 5975C Mass Selective Detector (VL MSD with Triple-Axis Detector), Agilent Technologies, Wilmington, DE, USA). Chromatographic separation was achieved on an HP-5MS capillary column (Agilent 19091S-433) with dimensions of 30 m in length, 0.250 mm inner diameter and 0.25 μm film thickness. Helium served as the carrier gas under strictly controlled flow (an initial flow rate of 2.77 mL/min and a post-run flow of 1.3 mL/min) and inlet pressure (approximately 23.27 psi). Sample preparation was carried out using solid-phase microextraction (SPME), a solvent-free and efficient extraction technique that utilises the adsorption of analytes onto a polymer-coated fibre. For this purpose, a 65 μm polydimethylsiloxane/divinylbenzene (PDMS/DVB) StableFlex fibre assembly (23Ga, Supelco 57293-U, Sigma-Aldrich, St. Louis, MO, USA) was employed in combination with a PAL autosampler (CTC Analytics, Zwingen, Switzerland). Due to fibre wear, the SPME fibre was replaced after every 40 to 60 samples to ensure consistent extraction performance.
For determination of the total content of thymol plasma and homogenized tissue samples were enzymatically hydrolysed with β-glucuronidase from Helix pomatia (Sigma-Aldrich, St. Louis, MO, USA) at 37 °C and pH 5 for 30 min to cleave thymol conjugates. Following hydrolysis, samples were salted out with sodium chloride (1.00 g), acidified with phosphoric acid (85%) and spiked with an o-cresol internal standard. All reagent concentrations and incubation conditions were applied as described in the previous study by Oceľová et al..

[4] = cited from earlier work
[5] = Thymol stability in feed (HPLC); type: physicochemical; settings: enteric SES pellets in feed
Procedure: Thymol evaporation in feed was analysed every week during thymol application using high-performance liquid chromatography (HPLC) according to the modified method of Oceľová [10] and Pisarčíková et al.. Samples were analysed in triplicate. Briefly, 2 mL of methanol was added to a glass tube containing 0.2 g of milled feed, and thymol was extracted in an ultrasonic bath. The methanolic extract was then analysed using the HPLC method with an Ultimate 3000 HPLC-system liquid chromatograph (Dionex, Sunnyvale, CA, USA). The chromatographic analyses were evaluated using Chromeleon® Software Version 6.80 SR10 Build 2906 (Thermo Fisher Scientific, Waltham, MA, USA).

[6] = thymol 250 mg/kg feed, 56 d of age
[7] = powder form, after thymol withdrawal
[8] = same concentration of thymol, powder non-pelleted form

- thymol in muscle ([3]; after thymol withdrawal (7 d)): below LOQ
- thymol in plasma ([3]; after thymol withdrawal (7 d)): below LOQ
- thymol in spleen ([3]; after thymol withdrawal (7 d)): below LOQ
- Spearman correlation (rs) of thymol concentration, DW and kidney ([3]; both, rabbit, in vivo): 0.9833
- Spearman correlation (rs) of thymol concentration, DW and muscle ([3]; both, rabbit, in vivo): 0.8167
- Spearman correlation (rs) of thymol concentration, JW and muscle ([3]; both, rabbit, in vivo): 0.8500
- Spearman correlation (rs) of thymol concentration, plasma and kidney ([3]; both, rabbit, in vivo): 0.9167
- Spearman correlation (rs) of thymol concentration, plasma and muscle ([3]; both, rabbit, in vivo): 0.8667
- thymol concentration in DW, times higher than in JW ([3]; both, rabbit, in vivo): 1.1 times
- thymol concentration in DW, times higher than in caecum ([3]; both, rabbit, in vivo): 1.9 times
- thymol concentration in DW, times higher than in colon ([3]; both, rabbit, in vivo): 1.3 times
- concentration at 21 d ([3]; both, rabbit, in vivo, 250 mg/kg): 213 ng/mL and 753 ng/g
- Spearman correlation (rs) of thymol concentration, plasma and DW ([3]; both, rabbit, in vivo, 21 d): 0.9333
- thymol concentration in DW, times higher than in JW ([3]; both, rabbit, in vivo, 21 d): 1.4 times
- thymol concentration in DW, times higher than in caecum ([3]; both, rabbit, in vivo, 21 d): 1.7 times
- thymol concentration in DW, times higher than in colon ([3]; both, rabbit, in vivo, 21 d): 1.3 times
- thymol in all tissues (plasma, liver, kidney, spleen, fat, muscle) and entire intestinal tract ([3]; rabbit, in vivo): above LOQ
- concentration of thymol in feed ([5]; 0 d of thymol application): 246.1 ± 5.8 µg/g DM
- concentration of thymol in feed ([5]; 7 d of thymol application): 197.8 ± 8.3 µg/g DM
- concentration of thymol in feed ([5]; 14 d of thymol application): 221.9 ± 5.1 µg/g DM
Structure (SMILES): Cc1ccc(C(C)C)c(O)c1 [thymol, Thymol]
- live weight ([1]; 63 d of age (7 d after thymol withdrawal)): 2525 ± 63.2 g
- average weight gain per rabbit ([1]; 63 d of age (after withdrawal)): 40.24 ± 2.94 g/day
- conversion ratio ([1]; 63 d of age (after withdrawal)): 4.24 ± 0.29
- average weight gain per rabbit [1, 6]: 36.25 ± 1.48 g/day
- conversion ratio [1, 6]: 4.44 ± 0.25
- live weight ([1]; thymol 250 mg/kg feed, 56 d of age (21 d with thymol)): 2497 ± 46.9 g
- growth performance ([1]; thymol addition 250 mg/kg feed vs control): not influenced
- dissociation constant pKA [2]: 10.62
- thymol in all intestinal segments and organs [4, 7]: below the detection limit
- thymol in spleen [4, 7]: not detected
- thymol in muscle and fat tissues ([4]; powder form, during application): below the detection limit
- thymol concentration in DW, times lower than in caecum [4, 8]: 3.3 times
- thymol concentration in DW, times lower than in colon [4, 8]: 2.5 times
